The text below walks through data of US20230082130A1, “USE OF C[…] TO TREAT OR PREVENT FUNGAL GROWTH OF C. ALBICANS” (Demetrix, Inc., priority 2021, published 2023).

The experiment relates to C. albicans. Kind of experiment: minimum inhibitory concentration (MIC) assay against C. albicans. The following applies: growth inhibition of C. albicans, assay performed by Charles River Laboratories. The experiment is classed as cell-based, Candida albicans. The method, then:
To determine the ability of the cannabinoid compounds described herein to reduce, inhibit, or eliminate, C. albicans a minimum inhibitory concentration (“MIC”) assay was performed. […] The assay was performed by Charles River Laboratories International (Wilmington, Mass.) in accordance with industry standards.

[1] abbreviates: Candida albicans, read-out: MIC.

Converted amounts (≈) assume the structure as drawn. Read-outs that look alike come from different tables or passages of the source.

On to `C=C(C)[C@@H]1CCC(C)=C[C@H]1c1c(O)cc(CCC)c(C(=O)O)c1O` [CBDVA, cannabidivarinic acid], for which the MIC was above 200 µg/mL.

As for `CCCCCc1cc(O)c(C/C=C(\C)CCC=C(C)C)c(O)c1C(=O)O` [CBGA, cannabigerolic acid], the minimal inhibitory concentration (MIC) is above 200 µg/mL. Besides, under setting [1], the MIC was above 200 µg/mL.

Compound `CCCCCc1cc2c(c(O)c1C(=O)O)C1C3C(CCC3(C)O2)C1(C)C` (centres unmarked) [CBLA, cannabicyclolic acid] had an MIC above 200 µg/mL.

In turn, `CCCCc1cc(O)c(CC=C(C)CCC=C(C)C)c(O)c1` [CBG-C4, cannabigerol butyl] showed a minimum inhibitory concentration (MIC) of 200 µg/mL (≈ 661 µM).

With (+)-cannabidiol [(+)-CBD], the MIC was above 200 µg/mL.

In turn, `C=C(C)[C@@H]1CCC(C)=C[C@H]1c1c(O)cc(CCCCC)c(C(=O)O)c1O` [CBDA, cannabidiolic acid] displayed a minimal inhibitory concentration (MIC) above 200 µg/mL. In addition, the MIC under setting [1] was above 200 µg/mL.

Consider `CCCCCc1cc2c(c(O)c1C(=O)O)C=CC(C)(CCC=C(C)C)O2` (centres unmarked) [CBCA, cannabichromenic acid], for which the MIC is above 200 µg/mL.

The compound `CCCCCc1cc(O)c2c(c1)OC1(C)CCC3C1C2C3(C)C` (centres unmarked) [CBL, cannabicyclol] had an MIC above 200 µg/mL. The MIC under setting [1] was above 200 µg/mL.

`CCCCCc1cc(O)c2c(c1)OC(C)(C)c1ccc(C)cc1-2` [CBN, cannabinol] yielded an MIC above 200 µg/mL. The MIC under setting [1] is above 200 µg/mL.

For `C=C(C)[C@@H]1CCC(C)=C[C@H]1c1c(O)cc(CCC)cc1O` [CBDV, cannabidivarin], for the setting “Candida albicans”, the MIC is below 25 µg/mL.

As for `CCCCCc1cc(O)c2c(c1)OC(C)(CCC=C(C)C)C=C2` (centres unmarked) [CBC, cannabichromene], the minimal inhibitory concentration (MIC) was above 200 µg/mL. For the same compound, the MIC under setting [1] is above 200 µg/mL.

Consider `CCCCc1cc(O)c(C/C=C(\C)CCC=C(C)C)c(O)c1C(=O)O` [CBGA-C4, cannabigerolic acid butyl], for which the MIC was above 200 µg/mL.

`CCCc1cc(O)c(C/C=C(\C)CCC=C(C)C)c(O)c1C(=O)O` [CBGVA, cannabigerovarinic acid] came in with a minimal inhibitory concentration (MIC) above 200 µg/mL.

For the compound `CCCc1cc(O)c(C/C=C(\C)CCC=C(C)C)c(O)c1` [CBGV, cannabigerivarin], the MIC amounted to 50 µg/mL (≈ 173 µM).

Compound `CCCCCc1cc2c(c(O)c1C(=O)O)-c1cc(C)ccc1C(C)(C)O2` [CBNA, cannabinolic acid] gave an MIC above 200 µg/mL.

For `CCCCCc1cc(O)c(C/C=C(\C)CCC=C(C)C)c(O)c1` [CBG, cannabigerol], the minimum inhibitory concentration (MIC) was above 200 µg/mL. Moreover, the minimal inhibitory concentration (MIC) under setting [1] was above 200 µg/mL.

`C=C(C)[C@@H]1CCC(C)=C[C@H]1c1c(O)cc(CCCCC)cc1O` [CBD, cannabidol] returned an MIC of 200 µg/mL (≈ 636 µM).
